This note sets out measurements from patent US20150004134A1, “TREATMENT OF CANCER WITH HETEROCYCLIC INHIBITORS OF GLUTAMINASE” (Calithera Biosciences, Inc., priority 2012, published 2015).

Data set [1] has as its target T1, recombinant form of glutaminase (GAC Delta N2) (Homo sapiens, UniProt O94925).
T1 sequence (O94925 137-598 isoform O94925-3 limits assumed): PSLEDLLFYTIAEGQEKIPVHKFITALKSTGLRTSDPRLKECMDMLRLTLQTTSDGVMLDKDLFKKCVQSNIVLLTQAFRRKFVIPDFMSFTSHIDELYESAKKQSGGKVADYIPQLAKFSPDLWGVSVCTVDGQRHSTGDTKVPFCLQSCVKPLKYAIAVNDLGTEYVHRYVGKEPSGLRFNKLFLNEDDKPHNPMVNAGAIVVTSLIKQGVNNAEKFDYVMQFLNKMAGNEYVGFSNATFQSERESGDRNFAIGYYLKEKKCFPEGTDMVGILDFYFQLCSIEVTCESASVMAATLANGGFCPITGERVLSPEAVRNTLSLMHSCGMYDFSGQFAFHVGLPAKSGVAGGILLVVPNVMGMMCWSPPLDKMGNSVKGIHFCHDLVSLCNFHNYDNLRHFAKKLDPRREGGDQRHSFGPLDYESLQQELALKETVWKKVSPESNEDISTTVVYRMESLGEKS
The data set can be described thus: Modified Recombinant Enzyme Assay - Time Dependence. In kind it is biochemical. The settings on record: 60 min preincubation.
Experimental: Compounds were assessed for their ability to inhibit the enzymatic activity of a recombinant form of glutaminase using a biochemical assay that couples the production of Glu (liberated by glutaminase) to GDH and measures the increase in fluorescence due to the reduction of NADP+ to NADPH.
3x-enzyme-containing solution was made by diluting recombinant glutaminase and GDH from Proteus species (Sigma Aldrich no. G4387) into glutaminase buffer to create a 6 nM glutaminase plus 18 units/mL GDH solution. […] When time-dependent effects of compound inhibition were tested, enzyme-containing solution was treated with inhibitor-containing solution for the indicated time prior to addition of substrate-containing solution.
IC50 Determination: The initial velocities of each progress curve were calculated using a straight line equation (Y=Yintercept+(slope)*X). Initial velocity values were plotted against compound concentration and fit to a four parameter dose response equation (% activity=Bottom+(Top−Bottom)/(1+10̂((LogIC50−X)*HillSlope))) to calculate an IC50 value.

The target of data set [2] is T2, recombinant form of Glutaminase 1 (GAC) (Homo sapiens, UniProt O94925).
T2 sequence (O94925 137-598 isoform O94925-3 limits assumed): T1 sequence (O94925 137-598 isoform O94925-3 limits assumed)
The data set can be described thus: Recombinant Enzyme Assay - Time Dependence (60 min preincubation). The settings on record: read-out: GAC Delta N2 IC50 60 min preinc. It is filed as biochemical. Summed up:
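Enzyme and compound preincubated 60 min at 20° C; reaction started with substrate buffer (50 mM Tris-HCl pH 8.0, 150 mM K2HPO4, 1 mM DTT, 20 mM L-glutamine, 2 mM NAD^+). NADH formation followed at 340 nm in kinetic mode for 15 min at 20° C; slopes (mAU/min) compared with DMSO and control-compound wells.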

The next data set deals with Caco-2 cell monolayers. The data set can be described thus: Caco-2 Permeability Assay. It is filed as in vitro ADME. Conditions: for Permeability Classification: absorption potential. An excerpt:
Caco-2 cells are commonly used in a confluent monolayer on a cell culture insert filter. When cultured in this format and under specific conditions, the cells become differentiated and polarized such that their phenotype, morphologically and functionally resembles the enterocytes lining the small intestine. The cell monolayer provides a physical and biochemical barrier to the passage of small molecules, and is widely used across the pharmaceutical industry as an in vitro model of the human small intestinal mucosa to predict the absorption of orally administered drugs (Hidalgo et al., Gastroenterology, 1989; Artursson, J. Pharm. Sci., 1990). The correlation between the in vitro apparent permeability (P ? app) across Caco-2 monolayers and the in vivo absorption is well established (Artursson et al., Biochem. Biophys. Res. Comm., 1991).
The present assay was used to determine the bidirectional permeability of the compounds of the invention through Caco-2 cell monolayers. Caco-2 cells were grown in confluent monolayers where the media of both the apical (A) and basolateral (B) sides were at pH 7.4. Compounds were dosed at 1 μM in the presence of 200 μM Lucifer Yellow, on the apical side (A→B) or the basolateral side (B→A) for assessment, in duplicate.
The absorption potential of compounds were classified as either Low (P-app <1×10^−6 CM/S) or High (P-app >1×10^−6 CM/S).
In general terms: Passage across Caco-2 layers is used to estimate intestinal permeability.

In data set [3] the target is T2, recombinant form of Glutaminase 1 (GAC). The data set can be described thus: Recombinant Enzyme Assay (no preincubation).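 Note: GDH-coupled GAC activity read as absorbance at 340 nm in kinetic mode over 15 min at 20 °C, slopes compared with a DMSO-only control, lower slope means inhibition.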 In kind it is biochemical. The settings on record: read-out: GAC Delta N2 IC50 no preinc.
Experimental: Compounds were assessed for their ability to inhibit the enzymatic activity of a recombinant form of Glutaminase 1 (GAC) using a biochemical assay that couples the production of glutamate (liberated by GAC) to glutamate dehydrogenase (GDH) and measuring the change in absorbance for the reduction of NAD^+ to NADH. […] Enzymatic reaction was started with the addition of 50 μL of enzyme solution (50 mM Tris-HCl pH 8.0, 0.2 mM EDTA, 150 mM K2HPO4, 0.1 mg/ml BSA, 1 mM DTT, 10 ppm antifoam, 4 units/ml GDH, 4 mM adenosine diphosphate, and 4 nM GAC) and read in a Molecular Devices M5 plate reader at 20° C. The plate reader was configured to read absorbance (λ=340 nm) in kinetic mode for 15 minutes. Data was recorded as milli-absorbance units per minute and slopes were compared to a control compound and a DMSO-only control on the same plate. Compounds with slopes less than the DMSO control were considered inhibitors and plate variability was assessed using the control compound.
For the next data set, the system named is P493-6 (myc "on") cells. The data set is described as follows: Cell Proliferation Assay. It is filed as cell-based. Conditions: P493-6, 72 h, read-out: Cell prolif P493 72 h IC50, P493 cells, 72 h. Summed up:
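Read-out: either Cell Titer Glo or Guava Viacount flow analysis after 72 h compound treatment of myc-on P493-6 cells (10,000/well, RPMI with 10% FBS) at 37 °C. DMSO held at 0.5% final.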

A further data set concerns HCT116 cells. The data set can be described thus: Colon Carcinoma Xenograft Efficacy Study. In kind it is in vivo, mice. Conditions: intraperitoneal, twice daily, vs vehicle (FIG. 11). The procedure: Female scid/bg mice, approximately 6 weeks of age, were implanted subcutaneously on the right flank with 5×10^6 HCT116 cells per mouse in a volume of 100 uL of sterile PBS. When tumors reached a volume of 50-100 mm^3, mice were randomized to groups of n=10 to receive either vehicle or test compound delivered twice daily by intraperitoneal injection. Tumors were measured three times per week using Vernier calipers and tumor volume calculated using the formula: Volume=(Length×Width^2/2), where length and width are the longest perpendicular sides of the tumor. Dosing continued twice daily until control tumors reached a size of 2000 mm^3 Statistical comparisons were made using a 2-way ANOVA with Bonferroni post-test.

With `COc1ccc(OC(F)(F)F)cc1CC(=O)Nc1ccc(CCCCc2nnc(NC(=O)Cc3ccccn3)s2)nn1` [Compound 717], the IC50 in data set [1] was found to be 34 nM. The same measure, in the same setting: the value for `O=C(Cc1cc(OC(F)(F)F)ccc1O)Nc1ccc(CCCCc2nnc(NC(=O)Cc3ccccn3)s2)nn1` [Compound 718] was 26 nM; that for `COc1cc(CC(=O)Nc2ccc(CCCCc3nnc(NC(=O)Cc4ccccn4)s3)nn2)cc(OC(F)(F)F)c1` [Compound 729] was 16 nM. Take `O=C(Cc1cccc(OC(F)(F)F)c1)Nc1ccc(CCCCc2nnc(NC(=O)Cc3ccccc3)s2)nn1` [Compound 585]: the IC50 in data set [2] came out at 6 nM. For the same molecule, in the data set on Caco-2 cell monolayers, the “Significant Efflux” value is on record as “Yes (efflux ratios being significant when greater than or equal to 3 when the Papp (B→A) was greater than or equal to 1×10^−6 cm/s)” and the “Permeability Classification” value is “High (High (P-app >1×10^−6 CM/S))”.

With `O=C(Cc1cccc(OC(F)(F)F)c1)Nc1ccc(CCCCc2nnc(NC(=O)C(O)c3cccc(Cl)c3)s2)nn1` (stereo not shown) [Compound 447], the IC50 in data set [2] was determined as 5 nM. In addition, in the data set on Caco-2 cell monolayers, the “Significant Efflux” value is “Yes (efflux ratios being significant when greater than or equal to 3 when the Papp (B→A) was greater than or equal to 1×10^−6 cm/s)” and the “Permeability Classification” value is reported as “High (High (P-app >1×10^−6 CM/S))”.

In the case of `CC(C)(C)OC(=O)Nc1cccc(CC(=O)Nc2nnc(CCCCc3ccc(NC(=O)Cc4cccc(OC(F)(F)F)c4)nn3)s2)n1` [Compound 724], the IC50 in data set [1] came to 140 nM. In the case of `O=C(Cc1ccccc1)Nc1ccc(CCCCc2nnc(NC(=O)Cc3ccccc3)s2)nn1` [Compound 295], the IC50 in data set [3] was 57 nM; in data set [2], 10 nM; in the data set with P493-6 (myc "on") cells, 39 nM. Also, in the data set with Caco-2 cell monolayers, the “Significant Efflux” value is on record as “Yes (efflux ratios being significant when greater than or equal to 3 when the Papp (B→A) was greater than or equal to 1×10^−6 cm/s)”. Also, the “Permeability Classification” value in the data set with Caco-2 cell monolayers was “High (High (P-app >1×10^−6 CM/S))”. For `Cc1cccc(CC(=O)Nc2nnc(CCCCc3ccc(NC(=O)Cc4cccc(OC(F)(F)F)c4)nn3)s2)n1` [Compound 728], in data set [1], the IC50 was found to be 12 nM. On the same count and under the same terms, next, `Nc1cccc(CC(=O)Nc2nnc(CCCCc3ccc(NC(=O)Cc4cccc(OC(F)(F)F)c4)nn3)s2)n1` [Compound 725]: 50 nM.

As for `O=C(Cc1ccccc1)Nc1ccc(CCCCc2nnc(NC(=O)C(O)c3cccc(Cl)c3)s2)nn1` (stereo not shown) [Compound 318], the IC50 was 180 nM in data set [3], 6 nM in data set [2] and 17 nM with P493-6 (myc "on") cells. For the same molecule, the “Significant Efflux” value in the data set with Caco-2 cell monolayers is on record as “Yes (efflux ratios being significant when greater than or equal to 3 when the Papp (B→A) was greater than or equal to 1×10^−6 cm/s)”. The “Permeability Classification” value in the data set with Caco-2 cell monolayers is “High (High (P-app >1×10^−6 CM/S))”. As to `O=C(Cc1ccccn1)Nc1nnc(CCCCc2ccc(NC(=O)C(O)c3ccccc3)nn2)s1` (stereo not shown) [Compound 715], the IC50 in data set [1] amounted to 190 nM.

As for `COc1ccc(CC(=O)Nc2ccc(CCCCc3nnc(NC(=O)Cc4ccccn4)s3)nn2)cc1OC(F)(F)F` [Compound 722], the IC50 in data set [1] came to 24 nM. In the case of `O=C(Cc1cccc(OC(F)(F)F)c1)Nc1ccc(CCCCc2nnc(NC(=O)Cc3cccc(OC(F)(F)F)c3)s2)nn1` [Compound 660], the IC50 in data set [2] is 25 nM. For the same molecule, in the data set on Caco-2 cell monolayers, the “Significant Efflux” value is on record as “Yes (efflux ratios being significant when greater than or equal to 3 when the Papp (B→A) was greater than or equal to 1×10^−6 cm/s)” and the “Permeability Classification” value was “Low (Low (P-app <1×10^−6 CM/S))”. With `O=C(CCN1CCOCC1)OCC(C(=O)Nc1nnc(CCCCc2nnc(NC(=O)C(COC(=O)CCN3CCOCC3)c3ccccc3)s2)s1)c1ccccc1` (stereo not shown) [Compound 188, {[5,5′-(butane-1,4-diyl)-bis(1,3,4-thiadiazole-5,2-diyl)]-bis(azanediyl)}-bis(3-oxo-2-phenylpropane-3,1-diyl)-bis(3-morpholinopropanoate)], in the data set with P493-6 (myc "on") cells, the IC50 was 460 nM. Moreover, in the data set on HCT116 cells, the tumor size entry is recorded as “reduced tumor size”.

With `O=C(Cc1ccc(O)c(OC(F)(F)F)c1)Nc1ccc(CCCCc2nnc(NC(=O)Cc3ccccn3)s2)nn1` [Compound 723], in data set [1], the IC50 was 42 nM. Take `CC(C(=O)Nc1nnc(CCCCc2ccc(NC(=O)Cc3ccccc3)nn2)s1)c1ccccc1` (stereo not shown) [Compound 616]: the IC50 in data set [2] came out at 8 nM. Besides, in the data set with Caco-2 cell monolayers, the “Significant Efflux” value is reported as “Yes (efflux ratios being significant when greater than or equal to 3 when the Papp (B→A) was greater than or equal to 1×10^−6 cm/s)” and the “Permeability Classification” value was “High (High (P-app >1×10^−6 CM/S))”. As to `O=C(Cc1cc(O)cc(OC(F)(F)F)c1)Nc1ccc(CCCCc2nnc(NC(=O)Cc3ccccn3)s2)nn1` [Compound 730], in data set [1], the IC50 is 13 nM. Still for that read-out and setting: next, `O=C(Cc1cc(OC(F)(F)F)ccc1F)Nc1ccc(CCCCc2nnc(NC(=O)Cc3ccccn3)s2)nn1` [Compound 720]: 20 nM; `O=C(Cc1ccc(F)c(OC(F)(F)F)c1)Nc1ccc(CCCCc2nnc(NC(=O)Cc3ccccn3)s2)nn1` [Compound 719]: 33 nM.

On to `O=C(Cc1ccc(Cl)c(OC(F)(F)F)c1)Nc1ccc(CCCCc2nnc(NC(=O)Cc3ccccn3)s2)nn1` [Compound 721], for which, in data set [1], the IC50 is 16 nM.
